Patent US20080280851A1 (Clavis Pharma AS, priority 2005, published 2008)
Like-named read-outs stand apart in the source and are kept apart here. Marks after values point to notes of the source that are not given here.

Key:
[1] = system: Co6044 (human colon carcinoma); experiment: Antitumour activity in human colon cancer xenograft Co6044, IP treatment; settings: for antitumor effect: IP every third day for five times, ester 40 mg/kg, gemcitabine 120 mg/kg; for Toxic deaths (d): 8 mice
From the text: (§1) Treatment started when the tumours reached a mean volume of 100 mm^3.

[2] = system: Colon 6044 (human colon carcinoma); experiment: Antitumour activity in Co6044 after oral administration, different dosing schedules (Table 4); assay type: in vivo, NCR: nu/nu female mice; settings: for BWC / Toxic deaths (d) / Optimum T/C (on day): Oral; for Toxic deaths (d): 7 mice
From the text: Antitumour Activity of Elaidic Acid (5′)-Gemcitabine Ester in Co6044 after Oral Administration

[3] = Maximum tolerated dose, every third day repeated five times; assay type: in vivo, mice; settings: administered every third day
From the text: This is shown below by the experiments presented in table 1 and table 2 using different mice strains and also different human colon xenografts.

[4] = system: Colon 6044 (human colon carcinoma); experiment: Antitumour activity in Co6044 after oral administration (Table 3); settings: for BWC D13 / Toxic deaths (d) / Optimum T/C (on day): Oral, Q3 × 5
[5] = system: Colon 5776 (human colon carcinoma); experiment: Antitumour activity in human colon xenograft Co5776, IP treatment; settings: for Toxic deaths (d): D8, 11, 14, 17, 20, 8 mice; for antitumour activity in terms of reductions in tumour growth: gemcitabine 120 mg/kg, elaidic acid (5′)-gemcitabine ester 40 mg/kg, FIG. 1
From the text: (§2) Human colon cancer Co5776 was inserted to Ncr:nu/nu female mice subcutaneously, and treatment started when tumours reached a mean volume of 100 mm^3.

[6] = system: Colon 5776 (human colon carcinoma); settings: mouse, in vivo, ip, 120 mg/kg
From the text: as §2

[7] = system: Co6044 (human colon carcinoma); settings: mouse, in vivo, ip, 120 mg/kg
From the text: as §1

[8] = system: Colon 6044 (human colon carcinoma); settings: mouse, in vivo, po
[9] = IP, 40 mg/kg, D8, 11, 14, 17, 20
[10] = IP, 120 mg/kg, D8, 11, 14, 17, 20

## CCCCCCCC/C=C/CCCCCCCC(=O)OC[C@H]1O[C@@H](n2ccc(N)nc2=O)C(F)(F)[C@@H]1O [Elaidic acid (5′)-gemcitabine ester, elaidic acid (5′)-gemcitabine ester]
[1]
  antitumor effect: Excellent antitumor effect
[1]; [9]
  Optimum T/C: 19* %
  Toxic deaths (d): 0
[1]; IP, 40 mg/kg, D8, 11, 14, 17, 20, D8-15
  BWC D8-15 (body weight change): −1
[2]; 5 mg/kg, D7-11
  BWC: −3%
  Toxic deaths (d): 0
[2]; 5 mg/kg, D7-11, on day 28
  Optimum T/C (on day): 10 (28)* %
[2]; 10 mg/kg, D7, 10, 13, 16, 19
  BWC: −1%
  Toxic deaths (d): 0
[2]; 10 mg/kg, D7, 10, 13, 16, 19, on day 24
  Optimum T/C (on day): 35 (24)* %
[2]; 10 mg/kg, D7-11
  BWC: −5%
  Toxic deaths (d): 0
[2]; 10 mg/kg, D7-11, on day 17
  Optimum T/C (on day): 8 (17)* %
[2]; 15 mg/kg, D7, 10, 13, 16, 19
  BWC: −1%
  Toxic deaths (d): 0
[2]; 15 mg/kg, D7, 10, 13, 16, 19, on day 24
  Optimum T/C (on day): 27 (24)* %
[2]; 20 mg/kg, D7, 10, 13, 16, 19
  BWC: −3%
[2]; 20 mg/kg, D7, 10, 13, 16, 19, death on day 17
  Toxic deaths (d): 1 (17)
[2]; 20 mg/kg, D7, 10, 13, 16, 19, on day 24
  Optimum T/C (on day): 16 (24)* %
[2]; 50 mg/kg, D7, 14
  BWC: 0%
  Toxic deaths (d): 0
[2]; 50 mg/kg, D7, 14, on day 17
  Optimum T/C (on day): 22 (17)* %
[2]; 100 mg/kg, D7, 14
  BWC: −4%
[2]; 100 mg/kg, D7, 14, death on day 20
  Toxic deaths (d): 1 (20)
[2]; 100 mg/kg, D7, 14, on day 24
  Optimum T/C (on day): 4 (24)* %
[2]; oral, all tested schedules
  antitumour activity after oral administration: High dose dependent activity
[2]; oral, all the tested schedules
  significance of antitumour activity: Significant antitumour activity
[3]
  maximum tolerated dose: ~40 mg/kg per injection
[4]; 40 mg/kg
  BWC D13: −7%
[4]; 40 mg/kg, deaths on day 15
  Toxic deaths (d): 2/8 (15)
[4]; 40 mg/kg, on day 27
  Optimum T/C (on day): 5 (27)* %
[4]; 60 mg/kg
  Optimum T/C (on day): Toxic
  BWC D13: −9%
[4]; 60 mg/kg, deaths on days 12-24
  Toxic deaths (d): 6/8 (12-24)
[4]; 80 mg/kg
  Optimum T/C (on day): Toxic
  BWC D13: −6%
[4]; 80 mg/kg, deaths on days 16-22
  Toxic deaths (d): 6/8 (16-22)
[4]; oral, 40 mg/kg
  antitumour activity after oral administration: highly active
  tolerability after oral administration: tolerable
[5]; 40 mg/kg, D8, 11, 14, 17, 20
  BWC (body weight change): −4%
  Optimum T/C (volume of treated tumour versus volume of control tumour): 17* %
[5]; 40 mg/kg
  Toxic deaths (d): 0
[5]
  antitumour activity in terms of reductions in tumour growth: high antitumour activity

## Nc1ccn([C@@H]2O[C@H](CO)[C@@H](O)C2(F)F)c(=O)n1 [Gemcitabine, 2′,2′-difluorodeoxycytidine, reference compound]
[6]
  BWC (body weight change): −5%
[1]
  antitumor effect: Excellent antitumor effect
[1]; [10]
  Optimum T/C: 15* %
  Toxic deaths (d): 0
[7]
  BWC D8-15 (body weight change): −3
[8]; 120 mg/kg
  BWC D13: −16%
[8]; 180 mg/kg
  BWC D13: −22%
[8]; 240 mg/kg
  BWC D13: −21%
[3]
  maximum tolerated dose: approximately 120 mg/kg per injection
[5]; 120 mg/kg, D8, 11, 14, 17, 20
  Optimum T/C (volume of treated tumour versus volume of control tumour): 17* %
[5]; 120 mg/kg, death on day 18
  Toxic deaths (d): 1 (18)
[5]
  antitumour activity in terms of reductions in tumour growth: high antitumour activity
